Laboratory results published in patent US20210253595A1, “2-Aminopyrimidine Derivative and Preparation Method and Use Thereof” (Etern Biopharma (Shanghai) Co., Ltd., priority 2018, published 2021).

What was measured:
[1] = tested on: 2HG of fibrosarcoma cell line HT1080 expressing IDH1 mutant IDH1-R132C; assay: Inhibition of 2HG of fibrosarcoma cell line HT1080; format: cell-based; conditions: Homo sapiens, HT-1080; HT1080 cells, 48 hours with compound, 2HG in cell supernatant; read-out: HT1080 2HG inhibitory IC50
Experimental: In this experiment, the inhibitory activity of the compound of the disclosure on the concentration level of 2HG of the fibrosarcoma cell line HT1080 was determined by the following method.
The cells were digested with trypsin and inoculated into a 24 well cell culture plate with a density of 10000 cells/well. The cells were cultured in a 5% CO2 cell incubator at 37° C. After overnight culture, the test compound was added to the cells. The final concentration of DMSO was 0.1%, and DMSO was used as control. The plate was then placed in a cell incubator and cultured for 48 hours.
Detection of 2HG: 2-HG was measured by PicoProbe™ D-2-Hydroxyglutarate (D2HG) Assay Kit of BioVision. 500 uL cell supernatant was taken from each well and added to a 10 kD centrifuge column, 12000 g, and centrifuged for 10 minutes to remove the effect of enzyme activity. […] IC50 value was calculated by GraphPad Prism software.
The inhibition rate of the sample was obtained by the following formula: […]
IC50 value was calculated by GraphPad Prism software.

IDH1 R132C = IDH1 R132C (Homo sapiens, UniProt O75874, R132C); assay: Effect on IDH1 R132C enzyme activity (NADPH consumption, diaphorase/resazurin fluorescence); format: biochemical; conditions: 80 ng IDH1 R132C, α-KG 2 mM, NADPH 20 μM, 60 min preincubation
Chain of IDH1 R132C (O75874 whole entry R132C): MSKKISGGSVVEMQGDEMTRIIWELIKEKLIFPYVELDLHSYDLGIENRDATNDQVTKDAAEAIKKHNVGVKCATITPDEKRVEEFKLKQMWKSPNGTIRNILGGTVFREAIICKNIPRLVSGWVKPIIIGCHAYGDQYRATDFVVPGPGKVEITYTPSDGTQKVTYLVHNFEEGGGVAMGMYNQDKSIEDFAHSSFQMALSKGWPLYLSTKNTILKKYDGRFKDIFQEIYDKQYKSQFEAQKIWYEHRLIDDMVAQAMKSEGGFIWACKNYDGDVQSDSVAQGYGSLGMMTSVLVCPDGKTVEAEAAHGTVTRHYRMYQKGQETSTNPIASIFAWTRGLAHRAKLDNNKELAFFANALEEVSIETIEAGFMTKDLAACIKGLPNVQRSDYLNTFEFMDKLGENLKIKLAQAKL
Experimental: (§1) Test method: The enzyme activity of IDH1 converting α-KG to 2HG was measured by the consumption of NADPH. After the enzymatic reaction finished, the amount of residual NADPH can be reflected by fluorescence signal generated by the addition of catalytically excessive diphhorase and reazurin.
(§2) 50 μL mixed liquid of substrate α-KG and NADPH (final concentration of substrate α-KG was 2 mM, final concentration of NADPH was 20 μM), and the plate was incubated in dark for 60 min at room temperature. Detection reaction: 50 μL 1×detection buffer diluted 0.01 unit diabase and 30 μM resazurin were added into each well, and the mixture was incubated in dark at room temperature for 10 min. […] IC50 value was calculated by GraphPad Prism software.

IDH1 R132H = IDH1 R132H (Homo sapiens, UniProt O75874, R132H); assay: Effect on IDH1 R132H enzyme activity (NADPH consumption, diaphorase/resazurin fluorescence); format: biochemical; conditions: 100 ng IDH1 R132H, α-KG 1 mM, NADPH 20 μM, 60 min preincubation
Chain of IDH1 R132H (O75874 whole entry R132H): as the sequence (O75874 whole entry R132C) above, with C132H counted along it
Experimental: as §1
as §2, with “α-KG was 1 mM, final” for “α-KG was 2 mM, final”, “and the mixture was incubated” for “and the plate was incubated”

Compound	IC50 [1]	IC50 (IDH1 R132C)	IC50 (IDH1 R132H)
C[C@H](Nc1nccc(N2C(=O)OC3(COC3)[C@@H]2c2ccccc2)n1)c1ncn2c1CCc1cc(C(F)(F)F)ccc1-2 [Compound 16, (S)-8-phenyl-7-(2-(((S)-1-(7-trifluoromethyl-4,5-dihydroimidazo[1,5-a]quinolin-3-yl)ethyl)amino)pyrimidin-4-yl)-2,5-dioxa-7-azaspiro[3.4]octan-6-one]	140 nM	< 50 nM	< 50 nM
CC(C)[C@H]1C(C)OC(=O)N1c1ccnc(N[C@@H](C)c2ncn3c2CCc2cc(C(F)(F)F)ccc2-3)n1 (stereo partly drawn) [Compound 17, (4S)-4-isopropyl-5-methyl-3-(2-(((S)-1-(7-trifluoromethyl-4,5-dihydroimidazo[1,5-a]quinolin-3-yl)ethyl)amino)pyrimidin-4-yl)oxazolidin-2-one]	87 nM	< 50 nM	< 50 nM
CC(C)[C@@H]1N(c2ccnc(N[C@@H](C)c3ncn4c3CCc3cc(C(F)(F)F)ccc3-4)n2)C(=O)OC1(C)C [Compound 18, (S)-4-isopropyl-5,5-dimethyl-3-(2-(((S)-1-(7-trifluoromethyl-4,5-dihydroimidazo[1,5-a]quinolin-3-yl)ethyl)amino)pyrimidin-4-yl)oxazolidin-2-one]	26 nM	< 50 nM	50 to 500 nM
C[C@H](Nc1nccc(N2C(=O)OC[C@@H]2c2ccccc2)n1)c1ncn2c1CCc1cc(C(F)(F)F)ccc1-2 [Compound 20, (S)-4-phenyl-3-(2-(((S)-1-(7-trifluoromethyl-4,5-dihydroimidazo[1,5-a]quinolin-3-yl)ethyl)amino)pyrimidin-4-yl)oxazolidin-2-one]	7 nM	< 50 nM	< 50 nM
C[C@H](Nc1nccc(N2C(=O)OC[C@@H]2[C@H](C)F)n1)c1ncn2c1CSc1cc(C(F)(F)F)ccc1-2 [Compound 21, (R)-4-((S)-1-fluoroethyl)-3-(2-(((S)-1-(7-trifluoromethyl-4H-benzo[b]imidazo[1,5-d][1,4]thiazin-3-yl)ethyl)amino)pyrimidin-4-yl)oxazolidin-2-one]	17 nM	< 50 nM	< 50 nM
C[C@H](Nc1nccc(N2C(=O)OC[C@@H]2C2CC2)n1)c1ncn2c1COc1cc(Cl)ccc1-2 [Compound 22, (S)-3-(2-(((S)-1-(7-chloro-4H-benzo[b]imidazo[1,5-d][1,4]oxazin-3-yl)ethyl)amino)pyrimidin-4-yl)-4-cyclopropyloxazolidin-2-one]	104 nM	< 50 nM	50 to 500 nM
Cc1ccc2c(c1)CCc1c([C@H](C)Nc3nccc(N4C(=O)OC[C@@H]4[C@H](C)F)n3)ncn1-2 [Compound 23, (R)-4-((S)-1-fluoroethyl)-3-(2-(((S)-1-(7-methyl-4,5-dihydroimidazo[1,5-a]quinolin-3-yl)ethyl)amino)pyrimidin-4-yl)oxazolidin-2-one]	22 nM	< 50 nM	< 50 nM
C[C@H](Nc1nccc(N2C(=O)OC[C@@H]2[C@H](C)F)n1)c1ncn2c1COc1cc(C3CC3)ccc1-2 [Compound 26, (R)-3-(2-(((S)-1-(7-cyclopropyl-4H-benzo[b]imidazo[1,5-d][1,4]oxazin-3-yl)ethyl)amino)pyrimidin-4-yl)-4-((S)-1-fluoroethyl)oxazolidin-2-one]	167 nM	< 50 nM	< 50 nM
C[C@H](Nc1nccc(N2C(=O)OC[C@@H]2[C@H](C)F)n1)c1ncn2c1CCc1ccc(C(F)(F)F)cc1-2 [Compound 28, (R)-4-((S)-1-fluoroethyl)-3-(2-(((S)-1-(8-trifluoromethyl-4,5-dihydroimidazo[1,5-a]quinolin-3-yl)ethyl)amino)pyrimidin-4-yl)oxazolidin-2-one]	13 nM	< 50 nM	< 50 nM
